Experimental data reported in ChEMBL document CHEMBL3507680, “University of Dundee, Gates Library screen for HepG2 cell viability”.

test: Human HepG2 cell viability assay in 384 well format; format: toxicity, cell-based; design: dose 125 nL, time 70.5 hour; cytotoxicity at 70.5 h: concentration not given beside the values; conditions: HepG2 cells, read-out: Inhibition

SMILES	cytotoxicity at 70.5 h [%]
Cc1nn(CCc2nnc(NCC(C)C)s2)c(C)c1Br	-16
Cc1cc(C(F)(F)F)nn1C(C)C(=O)NN1CCOCC1 (centres undefined)	-7.56
Cc1nn(CC(=O)N2CCN(Cc3cn(C)nc3C)CC2)cc1Br	25.1
CCn1ncc(CN(C)C(=O)c2ccn(C)n2)c1C	-6.74
Cc1nn(CC(=O)N2CCN(Cc3cnn(C)c3C)CC2)cc1Br	29.4
Cc1nn(Cc2ccc(C(=O)NCCCN3CCCC3=O)o2)c(C)c1Br	-7.69
Cc1cc(C(F)(F)F)nn1CC(C)C(=O)Nc1cccnc1 (centres undefined)	-3.81
CCn1nc(C)c(CN(C)S(=O)(=O)c2cnn(C)c2)c1C	-5.84
CS(=O)(=O)N1CCC(C(=O)NCCCn2cc(Cl)cn2)CC1	-13.1
CCS(=O)(=O)Nc1ccn(Cc2ccc(F)cc2Cl)n1	-8.72
CCS(=O)(=O)Nc1cnn(Cc2cccc(F)c2)c1	-4.79
Cn1cc(-c2cc(-c3cnn(C)c3)n(CC(=O)NC3CC3)n2)cn1	-20.4
CCc1nnc(SCc2nonc2C)n1C	-11.2
Cn1nc(C(=O)N2CCOCC2)cc1C(=O)Nc1c(Cl)cccc1Cl	-2.69
Cn1cc(NC(=O)c2cc3c(s2)CCCC3)cn1	-0.0582
O=C(NC1CCCC1)c1cnn2c(-c3ccco3)ccnc12	-8.37
Cc1nn(CCNC(=O)c2cc(C3CC3)[nH]n2)c(C)c1Cl	3.19
Cc1c(S(=O)(=O)NCC(C)Cn2cc(Cl)cn2)cnn1C (centres undefined)	1.36
Cc1nn(C)cc1S(=O)(=O)N(CCc1ccccc1)Cc1ccn(C)n1	-4.26
CCn1cc(S(=O)(=O)N(CCc2ccccc2)Cc2ccn(C)n2)cn1	-11.1
O=C(Cn1ccc(C(=O)O)n1)Nc1c(Cl)cccc1Cl	-3.45

SMILES	cytotoxicity at 70.5 h [%]
COc1ccc2nc(NC(=O)c3c(C(=O)O)cnn3C)sc2c1	-8.88
CCn1ccc(-c2cc(C(=O)O)n3ncc(Cl)c3n2)n1	-10.2
CCn1ccc(-c2cc(C(=O)O)n3nc(C(F)(F)F)c(Br)c3n2)n1	-3.3
CCn1ncc2c(C(F)F)cc(-c3ccn(C)n3)nc21	-7.69
Cc1nn(C)cc1-c1cc(C(F)F)nc(NC2CCCCC2)n1	-11.8
O=C(NCC(F)F)c1cc(-c2ccccc2)nc2ncnn12	-1.07
CCOc1ccc2oc(-c3cnn(C)c3C)c(O)c(=O)c2c1	-3.56
Nc1no[n+]([O-])c1C(=O)NCc1cccnc1	-0.714
Nc1no[n+]([O-])c1C(=O)NCc1ccccn1	-13.7
N#Cc1cn[nH]c1NCc1cc(Br)ccc1O	-9.76
N#Cc1c[nH]nc1NCc1ccc2c(c1)OCO2	-10.8
O=C(Cn1cc(I)cn1)N1CCCCCC1	-3.07
N#Cc1cn[nH]c1NCc1cc(I)cc(I)c1O	-9.83
CCOC(=O)Cn1ccc(NC(=O)Cc2ccccc2F)n1	-18.1
NC(=O)c1c[nH]nc1NCc1ccc2c(c1)OCO2	-18.7
COc1cc(NCc2ccc(Cl)cc2)c(-c2nn[nH]n2)cc1OC	-0.792
COc1cc(NCc2ccncc2)c(-c2nn[nH]n2)cc1OC	-1.7
COc1ccc(-c2cc(C3(O)CCN(C)CC3)on2)cc1	-0.517
Fc1ccccc1-c1nnn(CCCc2nn[nH]n2)n1	-5.54
Clc1cccc(-n2cnnn2)c1N1CCCC1	3.81
CC(C)=CCCC(C)(O)c1cc(C(N)=O)no1 (centres undefined)	-9.16

SMILES	cytotoxicity at 70.5 h [%]
COC(=O)C1=NOC(Cc2cc(OC)c3c(c2)OCO3)C1 (centres undefined)	-20.2
COc1c(Br)c(CC2CC(CO)=NO2)c(Br)c2c1OCO2 (centres undefined)	-7.56
O=C1CC(c2cccnc2)c2c(sc3c2CCCC3)N1 (centres undefined)	-3.62
O=C1CC(c2ccncc2)c2c(sc3c2CCCC3)N1 (centres undefined)	-13.1
CCOC(=O)c1cc(C(C)(O)CCC=C(C)C)on1 (centres undefined)	-9.61
CCOC(=O)C1=NOC(Cc2cc(OC)c3c(c2)OCO3)C1 (centres undefined)	18.8
O=C1CC(c2ccc(C(=O)O)cc2)c2c(sc3c2CCCC3)N1 (centres undefined)	-9.3
COc1cc(C2SCC(=O)Nc3[nH]ncc32)cc2c1OCO2 (centres undefined)	-10.8
N#CCC1CC(c2ccc(F)cc2)=NO1 (centres undefined)	-10
CNc1[nH]nc(N)c1C(=O)Nc1ccc(OC)cc1	1.52
O=C1CC(c2ccc3c(c2)OCO3)c2snc(C(=O)O)c2N1 (centres undefined)	-10.6
O=C1CC(c2ccc(C(F)(F)F)cc2)c2snc(C(=O)O)c2N1 (centres undefined)	-15.6
COc1ccc2c(=O)ccn(CC(=O)O)c2c1	1.58
COC(=O)CCn1ccc(=O)c2ccccc21	-5.76
CN1CCN(C(=O)c2cc(-c3cccs3)cs2)CC1	-10.5
O=C(NC1CCS(=O)(=O)C1)c1cc(Sc2ncccn2)ccn1 (centres undefined)	-13.4
Cc1cc(C)n(CC(=O)Nc2cc(-c3ccncc3)[nH]n2)n1	-4.82
Cc1ccn(CC(=O)Nc2cc(-c3ccncc3)[nH]n2)n1	-2.4
O=C(c1ccc(-c2ccc(O)nc2)s1)N1CCSCC1	-14
Cc1ncc(CN2CCCC(c3nc4ccccc4n3C(C)C)C2)s1 (centres undefined)	-2.93
Cc1cc(N(C)C)nc(C2(C)CCCN2C(=O)c2ccn(C)n2)n1 (centres undefined)	-9.18

SMILES	cytotoxicity at 70.5 h [%]
Cc1ccc(-c2nnc(SCC(=O)O)n2-c2ccccc2)cc1	-10.9
Cc1cnc(N)c(C(=O)C2CCN(C(=O)c3cnc(C)nc3C)CC2)c1	-6.36
Cc1cnc(N)c(C(=O)C2CCN(C(=O)c3cnc(C)cn3)CC2)c1	-13
NCc1cnn(-c2ccccc2C(=O)NCc2ccccc2Cl)c1	-2.58
COCCN1CCC(c2cncc(-c3cccc(Cl)c3)n2)CC1	-5.78
CN(C)C(=O)CN1CCC(c2cncc(-c3cccc(Cl)c3)n2)CC1	-7.08
CC(C)(C)C(=O)N1CCCC(c2ncncc2-c2ccncc2)C1 (centres undefined)	-4.45
O=C(c1cccnc1)N1CCCC(c2ncncc2-c2ccncc2)C1 (centres undefined)	-5.25
O=C(c1ccccn1)N1CCCC(c2ncncc2-c2ccncc2)C1 (centres undefined)	-9.39
COc1cc(C2Nc3cc(Cl)ccc3C3=NCCN32)cc(OC)c1OC (centres undefined)	13.6
COc1ccc(C2Nc3cc(Cl)ccc3C3=NCCN32)cc1CO (centres undefined)	9.73
Cc1cc(-c2cnc(N3CCNC(=O)C3)nc2-c2ccncc2)on1	7.7
CN1CCN(c2ncc(-c3cnccn3)c([C@H]3CCCO3)n2)CC1	-8.8
Cc1n[nH]c(C)c1-c1cnc(C2CCN(S(C)(=O)=O)CC2)cn1	-6.98
CC(=O)N1CCC(c2cnc(-c3c(C)nn(C)c3C)cn2)CC1	-9.85
Cc1cc(CCC(N)=O)cc(C2CCCN2Cc2ccccn2)n1 (centres undefined)	-9.69
CC(=O)N1CCCC(c2ccccn2)C1 (centres undefined)	8.66
Cc1nc(C2CN(C)CCO2)cc(N2CCC(CO)CC2)n1 (centres undefined)	-4.15
NCCn1nc(C2CCN(Cc3ccccc3)C2)c2nccnc21 (centres undefined)	0.0423
CCCC(=O)N1CCC(c2ncc3c(n2)CCNC3)CC1	-5.64
CCn1[nH]c(C)c2c(C(F)(F)C(F)(F)F)cc(=O)nc1-2	-1.83
